Here are results for 15 compounds from PubChem BioAssay AID228 (DTP/NCI, 2004).

The structures appear in SMILES notation. Values joined by “and” are separate entries in the source; they are usually repeats but may differ in a detail not shown here. Equal values may be shown once. Inconclusive results are not listed.

In this test the test system is BDF1 mice, Friend leukemia sc, tumor weight T/C. Description: NCI In Vivo Anticancer Drug Screen. Data for tumor model Friend Virus Leukemia (Solid) (subcutaneous) in B6D2F1 (BDF1) mice. To be noted: endpoint: mean tumor weight, higher = larger tumour. The protocol:
The antitumor activity of compounds was measured in mice bearing transplantable tumors. Survival or tumor size were measured and the results are expressed as the measurement made in the treated group (T) divided by the measurement made in the vehicle treated control group (C). The tumor model used in this assay is Friend Virus Leukemia (Solid) (subcutaneous) in B6D2F1 (BDF1) mice

Setting [1] is: dose: 50.0 mg/kg/injection, schedule: Q01DX011 (ip), vehicle: carboxymethylcellulose (CMC).
[2] abbreviates: dose: 100.0 mg/kg/injection, schedule: Q01DX011 (ip), vehicle: carboxymethylcellulose (CMC).
Where [3] appears, read: dose: 125.0 mg/kg/injection, schedule: Q01DX011 (ip), vehicle: saline.
[4] abbreviates: dose: 250.0 mg/kg/injection, schedule: Q01DX011 (ip), vehicle: saline.
Setting [5] is: dose: 9.0 mg/kg/injection, schedule: Q01DX011 (sc), vehicle: steriod suspending solution.

For `CCOC(N)=O`, the T/C (dose: 37.5 mg/kg/injection, schedule: Q01DX011 (ip), vehicle: carboxymethylcellulose (CMC)) was 68 % of control; the T/C (dose: 62.12 mg/kg/injection, schedule: Q01DX011 (ip), vehicle: carboxymethylcellulose (CMC)) was 110 % of control; the T/C (dose: 62.5 mg/kg/injection, schedule: Q01DX011 (ip), vehicle: carboxymethylcellulose (CMC)) is 58 % of control; the T/C (dose: 75.0 mg/kg/injection, schedule: Q01DX011 (ip), vehicle: carboxymethylcellulose (CMC)) is 50 % of control; the T/C (dose: 125.0 mg/kg/injection, schedule: Q01DX011 (ip), vehicle: carboxymethylcellulose (CMC)) is 67 % of control; the T/C (dose: 125.25 mg/kg/injection, schedule: Q01DX011 (ip), vehicle: carboxymethylcellulose (CMC)) was 95 % of control. Further, the T/C was 52 % of control and 36 % of control (dose: 150.0 mg/kg/injection, schedule: Q01DX011 (ip), vehicle: carboxymethylcellulose (CMC)); 58 % of control and 66 % of control and 50 % of control (dose: 250.0 mg/kg/injection, schedule: Q01DX011 (ip), vehicle: carboxymethylcellulose (CMC)); 115 % of control (dose: 250.5 mg/kg/injection, schedule: Q01DX011 (ip), vehicle: carboxymethylcellulose (CMC)); 21 % of control (dose: 300.0 mg/kg/injection, schedule: Q01DX011 (ip), vehicle: carboxymethylcellulose (CMC)); 56 % of control and 37 % of control (dose: 334.0 mg/kg/injection, schedule: Q01DX011 (ip), vehicle: carboxymethylcellulose (CMC)); 20 % of control (dose: 450.0 mg/kg/injection, schedule: Q01DX011 (ip), vehicle: carboxymethylcellulose (CMC)). Moreover, the T/C is, setting by setting: (dose: 600.0 mg/kg/injection, schedule: Q01DX011 (ip), vehicle: carboxymethylcellulose (CMC)) 26 % of control; (dose: 800.0 mg/kg/injection, schedule: Q01DX011 (ip), vehicle: carboxymethylcellulose (CMC)) 36 % of control.

With `CCC(=O)NC1=C(N2CC2)C(=O)C(NC(=O)CC)=C(N2CC2)C1=O`, the T/C reads like this: (dose: 0.39 mg/kg/injection, schedule: Q01DX011 (ip), vehicle: carboxymethylcellulose (CMC)) 61 % of control; (dose: 0.78 mg/kg/injection, schedule: Q01DX011 (ip), vehicle: carboxymethylcellulose (CMC)) 48 % of control; (dose: 1.56 mg/kg/injection, schedule: Q01DX011 (ip), vehicle: carboxymethylcellulose (CMC)) 24 % of control; (dose: 3.12 mg/kg/injection, schedule: Q01DX011 (ip), vehicle: carboxymethylcellulose (CMC)) 7 % of control.

`CCn1cnc2c(=S)nc[nH]c21`: the T/C by setting is: (dose: 25.0 mg/kg/injection, schedule: Q01DX011 (ip), vehicle: carboxymethylcellulose (CMC)) 105 % of control; under setting [1], 66 % of control; under setting [2], 12 % of control.

Consider `c1ccc2[nH]cnc2c1`, for which the T/C (dose: 38.5 mg/kg/injection, schedule: Q01DX011 (ip), vehicle: carboxymethylcellulose (CMC)) is 82 % of control and 88 % of control; the T/C (dose: 77.0 mg/kg/injection, schedule: Q01DX011 (ip), vehicle: carboxymethylcellulose (CMC)) was 80 % of control and 83 % of control; the T/C (dose: 308.0 mg/kg/injection, schedule: Q01DX011 (ip), vehicle: carboxymethylcellulose (CMC)) is 102 % of control.

Regarding `Cc1cc2nc3c(=O)[nH]c(=O)nc-3n(CC(O)C(O)C(O)C(O)CO)c2cc1C` (stereo not drawn), the T/C runs as follows: (dose: 56.0 mg/kg/injection, schedule: Q01DX011 (ip), vehicle: carboxymethylcellulose (CMC)) 103 % of control; (dose: 113.0 mg/kg/injection, schedule: Q01DX011 (ip), vehicle: carboxymethylcellulose (CMC)) 110 % of control.

As for `CCC[CH2][Sn]1([CH2]CCC)[O]C(=O)C[S]1`, the T/C was 98 % of control (dose: 0.62 mg/kg/injection, schedule: Q01DX011 (ip), vehicle: carboxymethylcellulose (CMC)) and 68 % of control (dose: 1.25 mg/kg/injection, schedule: Q01DX011 (ip), vehicle: carboxymethylcellulose (CMC)).

For the compound `CC/C(=C(/CC)c1ccc(O)cc1)c1ccc(O)cc1`, the T/C was 171 % of control and 244 % of control (dose: 6.5 mg/kg/injection, schedule: Q01DX011 (sc), vehicle: steriod suspending solution); 169 % of control (dose: 13.0 mg/kg/injection, schedule: Q01DX011 (sc), vehicle: steriod suspending solution); 119 % of control and 121 % of control (dose: 26.0 mg/kg/injection, schedule: Q01DX011 (sc), vehicle: steriod suspending solution); 83 % of control (dose: 52.0 mg/kg/injection, schedule: Q01DX011 (sc), vehicle: steriod suspending solution).

As to `O=C(O)c1cc(O)c(O)c(O)c1`, the T/C is, setting by setting: (dose: 50.0 mg/kg/injection, schedule: Q01DX011 (ip), vehicle: alkali diluted with saline) 85 % of control; (dose: 100.0 mg/kg/injection, schedule: Q01DX011 (ip), vehicle: alkali diluted with saline) 79 % of control; (dose: 200.0 mg/kg/injection, schedule: Q01DX011 (ip), vehicle: alkali diluted with saline) 84 % of control; (dose: 400.0 mg/kg/injection, schedule: Q01DX011 (ip), vehicle: alkali diluted with saline) 95 % of control.

`Nc1ncnc2c1ncn2C1CCCO1` (stereo not drawn): the T/C by setting is: under setting [1], 111 % of control; under setting [2], 54 % of control.

Consider `c1ccc(CNc2ncnc3[nH]ncc23)cc1`, for which the T/C was 109 % of control (dose: 1.12 mg/kg/injection, schedule: Q01DX011 (ip), vehicle: carboxymethylcellulose (CMC)); 77 % of control (dose: 2.25 mg/kg/injection, schedule: Q01DX011 (ip), vehicle: carboxymethylcellulose (CMC)); 78 % of control (dose: 4.5 mg/kg/injection, schedule: Q01DX011 (ip), vehicle: carboxymethylcellulose (CMC)); 117 % of control (dose: 9.0 mg/kg/injection, schedule: Q01DX011 (ip), vehicle: carboxymethylcellulose (CMC)); 15 % of control (dose: 18.5 mg/kg/injection, schedule: Q01DX011 (ip), vehicle: carboxymethylcellulose (CMC)).

Take `O=CN(O)CC(=O)O`: the T/C reads like this: under setting [3], 154 % of control; under setting [4], 196 % of control; (dose: 375.0 mg/kg/injection, schedule: Q01DX011 (ip), vehicle: saline) 193 % of control.

Take `CN1CCC23c4c5ccc(O)c4OC2C(O)C=CC3C1C5` (stereo not drawn): the T/C is, setting by setting: (dose: 62.0 mg/kg/injection, schedule: Q01DX011 (ip), vehicle: saline) 116 % of control; under setting [3], 172 % of control; under setting [4], 118 % of control.

`CCCC(Sc1nc(N)nc2nc[nH]c12)C(=O)O` (stereo not drawn): the T/C (dose: 40.0 mg/kg/injection, schedule: Q01DX011 (ip), vehicle: carboxymethylcellulose (CMC)) was 77 % of control; the T/C (dose: 80.0 mg/kg/injection, schedule: Q01DX011 (ip), vehicle: carboxymethylcellulose (CMC)) was 45 % of control; the T/C (dose: 160.0 mg/kg/injection, schedule: Q01DX011 (ip), vehicle: carboxymethylcellulose (CMC)) is 5 % of control.

As to `CC(=O)OCC(=O)[C@@]1(O)CC[C@H]2[C@@H]3CCC4=CC(=O)CC[C@]4(C)[C@H]3[C@@H](O)C[C@@]21C`, the T/C is, setting by setting: (dose: 2.25 mg/kg/injection, schedule: Q01DX011 (sc), vehicle: steriod suspending solution) 267 % of control; (dose: 8.5 mg/kg/injection, schedule: Q01DX011 (sc), vehicle: steriod suspending solution) 73 % of control; under setting [5], 88 % of control; (dose: 17.0 mg/kg/injection, schedule: Q01DX011 (sc), vehicle: steriod suspending solution) 105 % of control; (dose: 30.0 mg/kg/injection, schedule: Q01DX011 (sc), vehicle: steriod suspending solution) 44 % of control; (dose: 60.0 mg/kg/injection, schedule: Q01DX011 (sc), vehicle: steriod suspending solution) 32 % of control. The T/C by setting is: (dose: 68.0 mg/kg/injection, schedule: Q01DX011 (sc), vehicle: steriod suspending solution) 60 % of control; (dose: 90.0 mg/kg/injection, schedule: Q01DX011 (sc), vehicle: steriod suspending solution) 29 % of control.

For `CC(C)(CC(=O)O)CC(=O)OCC(=O)[C@@]1(O)CC[C@H]2[C@@H]3CCC4=CC(=O)C=C[C@]4(C)[C@H]3[C@@H](O)C[C@@]21C`, the T/C reads like this: under setting [5], 61 % of control; (dose: 19.0 mg/kg/injection, schedule: Q01DX011 (sc), vehicle: steriod suspending solution) 58 % of control; (dose: 37.5 mg/kg/injection, schedule: Q01DX011 (sc), vehicle: steriod suspending solution) 48 % of control; (dose: 38.0 mg/kg/injection, schedule: Q01DX011 (sc), vehicle: steriod suspending solution) 50 % of control; (dose: 75.0 mg/kg/injection, schedule: Q01DX011 (sc), vehicle: steriod suspending solution) 46 % of control and 47 % of control; (dose: 150.0 mg/kg/injection, schedule: Q01DX011 (sc), vehicle: steriod suspending solution) 46 % of control and 47 % of control. The T/C reads like this: (dose: 300.0 mg/kg/injection, schedule: Q01DX011 (sc), vehicle: steriod suspending solution) 37 % of control and 38 % of control; (dose: 600.0 mg/kg/injection, schedule: Q01DX011 (sc), vehicle: steriod suspending solution) 31 % of control.
